How the values were obtained:
[1] = tested on: houseflies (Musca domestica); test: Relative toxicity to houseflies, topical drop on thorax; format: in vivo; settings: 5-benzyl-3-furylmethyl (1R)-trans-chrysanthemate = 1000; inverse ratio of LD50; topical, female flies
Description: (§1) The toxicity of these new esters was tested by the procedure described in detail in our above mentioned application and the following results were obtained:
(§2) The insecticidal acitivity of the esters of the invention was assessed against houseflies and mustard beetles using the following techniques:
Female flies were treated on the thorax with a one microliter drop of insecticide dissolved in acetone. Two replicates of 15 flies were used at each dose rate and 6 dose rates were used per compound under test. After treatment, the flies were maintained at a temperature of 20° C.±1° and kill was assessed 24 and 48 hours after treatment. LD50 values were calculated in micrograms of insecticide per fly and relative toxicities were calculated from the inverse ratios of the LD50 values. (see Sawicki et al, Bulletin of the World Health Organization, 35,893, (1966) and Sawicki et al, Entomologia and Exp. Appl. 10, 253, (1967)).
(§3) Relative toxicities were calculated by comparison with 5-benzyl-3-furylmethyl(1R)-trans-chrysanthemate which is one of the most toxic chrysanthemate esters known to houseflies and mustard beetles, its toxicity being about 24 times that of allethrin to houseflies and 65 times that of allethrin to mustard beetles.

[2] = tested on: mustard beetles (Phaedon cochleariae Fab); test: Relative toxicity to mustard beetles, topical micro drop; format: in vivo; settings: 5-benzyl-3-furylmethyl (1R)-trans-chrysanthemate = 1000; inverse ratio of LD50; topical, 48 hours
Description: as §1, §2
Acetone solutions of the test compound were applied ventrally to adult mustard beetles using a micro drop applicator. The treated insects were maintained for 48 hours after which time kill is assessed. Two replicates of 40 to 50 mustard beetles were used at each dose level and 3 to 4 dose levels were used for each compound. Again, LD50 values were calculated and relative toxicities were calculated for the inverse ratios of LD50 (see Elliott et al, J. Sci. Food Agric. 20, 561, (1969)).
as §3

Row | SMILES | Relative Toxicity, Houseflies [1] | Relative Toxicity, Mustard Beetles [2]
1 | C=C/C=C\CC1=C(C)C(OC(=O)[C@@H]2[C@@H](/C=C\CC)C2(C)C)CC1=O (single isomer, unassigned) [Compound R] | 30 | 300
2 | CCCC=C[C@@H]1[C@@H](C(=O)OCc2coc(Cc3ccccc3)c2)C1(C)C [B] | 630 | 890
3 | C=CCC1=C(C)C(OC(=O)[C@@H]2[C@@H](C=C(C)C)C2(C)C)CC1=O (stereo partly shown) [Bioallethrin, reference compound] | 60 | 20
4 | CCCCC=C[C@@H]1[C@@H](C(=O)OCc2coc(Cc3ccccc3)c2)C1(C)C [Compound C] | 270 | 420
5 | CCC=C(C)C1C(C(=O)OCc2coc(Cc3ccccc3)c2)C1(C)C (stereo not shown) [Compound H] | < 7 | 10
6 | CCCC=C(C)C1C(C(=O)OCc2coc(Cc3ccccc3)c2)C1(C)C (stereo not shown) [Compound I] | < 7 | < 10
7 | CC1(C)[C@H](C(=O)OCC#CCOc2ccccc2)[C@@H]1C=C(F)F [Compound ME3, 4-Phenoxybut-2-ynyl(1R)cis-3-(2,2-difluorovinyl)-2,2-dimethylcyclopropane carboxylate] | 150 | 30
8 | CC1(C)[C@H](C=C(F)F)[C@H]1C(=O)OCC#CCOc1ccccc1 [Compound ME4, 4-Phenoxybut-2-ynyl(1R)-trans-3-(2,2-difluorovinyl)-2,2-dimethylcyclopropane carboxylate] | 60 | 70
9 | CC1(C)[C@H](C(=O)OCC#CCOc2ccccc2)[C@@H]1C=C(Br)Br [Compound ME6, 4-Phenoxybut-2-ynyl(1R)cis-3-(2,2-dibromovinyl)-2,2-dimethylcyclopropane carboxylate] | 390 | 50
10 | COC(=O)C=C[C@@H]1[C@@H](C(=O)OCc2coc(Cc3ccccc3)c2)C1(C)C [Compound P19A] | 91 | 100
11 | CCOC(=O)C=C[C@@H]1[C@@H](C(=O)OCc2coc(Cc3ccccc3)c2)C1(C)C [Compound P19B] | 67 | 320
12 | CCCOC(=O)C=C[C@@H]1[C@@H](C(=O)OCc2coc(Cc3ccccc3)c2)C1(C)C [Compound P19C] | 24 | 40
13 | CCOC(=O)C(C)=C[C@@H]1[C@@H](C(=O)OCc2coc(Cc3ccccc3)c2)C1(C)C [Compound P19D] | 290 | 440
14 | CCCOC(=O)C(C)=C[C@@H]1[C@@H](C(=O)OCc2coc(Cc3ccccc3)c2)C1(C)C [Compound P19E] | 290 | 500
15 | CCC(=C[C@@H]1[C@@H](C(=O)OCc2coc(Cc3ccccc3)c2)C1(C)C)C(=O)OC [Compound P19F] | 130 | 360
16 | CCOC(=O)C(=C[C@@H]1[C@@H](C(=O)OCc2coc(Cc3ccccc3)c2)C1(C)C)CC [Compound P19G] | 300 | 500
17 | CCCOC(=O)C(=C[C@@H]1[C@@H](C(=O)OCc2coc(Cc3ccccc3)c2)C1(C)C)CC [Compound P19H] | 20 | 50
18 | CC1(C)[C@H](C=C(Cl)Cl)[C@H]1C(=O)OCc1coc(Cc2ccccc2)c1 [Compound P21A] | 2500 | 2700

Row | SMILES | Relative Toxicity, Houseflies [1] | Relative Toxicity, Mustard Beetles [2]
19 | CC1(C)[C@H](C=C(Br)Br)[C@H]1C(=O)OCc1coc(Cc2ccccc2)c1 [Compound P21B] | 1100 | 1900
20 | CC1(C)C(C=C(Cl)Cl)C1C(=O)OCc1cccc(Cc2ccccc2)c1 (stereo not shown) [Compound P21K] | 340 | 350
21 | COC(=O)C(Cl)=C[C@@H]1[C@@H](C(=O)OCc2coc(Cc3ccccc3)c2)C1(C)C [Compound P24A, 5-benzyl-3-furylmethyl ester of 2,2-dimethyl-3-(2-chloro-2-carbomethoxyvinyl)cyclopropane carboxylic acid] | 82 | 310
22 | CCOC(=O)C(Cl)=C[C@@H]1[C@@H](C(=O)OCc2coc(Cc3ccccc3)c2)C1(C)C [Compound P24B] | 150 | 310
23 | CCCOC(=O)C(Cl)=C[C@@H]1[C@@H](C(=O)OCc2coc(Cc3ccccc3)c2)C1(C)C [Compound P24C] | 53 | 120
24 | CCOC(=O)C(Br)=C[C@@H]1[C@@H](C(=O)OCc2coc(Cc3ccccc3)c2)C1(C)C [Compound P24D] | 450 | 290
25 | CC1(C)[C@H](C(=O)OCc2cccc(Oc3ccccc3)c2)[C@@H]1C=C(Br)Br [Compound P29A, 3-phenoxybenzyl(1R)cis-2,2-dimethyl-3-(2,2-dibromovinyl)cyclopropane carboxylate] | 2200 | 1600
26 | CC1(C)[C@H](C(=O)OC(C#N)c2cccc(Oc3ccccc3)c2)[C@@H]1C=C(Br)Br (stereo partly drawn) [Compound P29B, (αRS)-cyano-3-phenoxybenzyl(1R)cis-2,2-dimethyl-3-(2,2-dibromovinyl)cyclopropane carboxylate] | 10000 | 11000
27 | CC1(C)[C@H](C=C(Br)Br)[C@H]1C(=O)OCc1cccc(Oc2ccccc2)c1 [Compound P29C, 3-phenoxybenzyl(1R)trans-2,2-dimethyl-3-(2,2-dibromovinyl)-cyclopropane carboxylate] | 1100 | 4000
28 | CC1(C)[C@H](C=C(Br)Br)[C@H]1C(=O)OC(C#N)c1cccc(Oc2ccccc2)c1 (stereo partly drawn) [Compound P29D, (αRS)-cyano-3-phenoxybenzyl(1R)trans-2,2-dimethyl-3-(2,2-dibromovinyl)-cyclopropane carboxylate] | 4100 | 5200
29 | CC1(C)[C@H](C=C(Cl)Cl)[C@H]1C(=O)OC(C#N)c1cccc(Oc2ccccc2)c1 (stereo partly drawn) [Compound P29E, (αRS)-cyano-3-phenoxybenzyl(1R)trans-2,2-dimethyl-3-(2,2-dichlorovinyl)-cyclopropane carboxylate] | 3900 | 3100
30 | CC1(C)[C@H](C(=O)OC(C#N)c2cccc(Oc3ccccc3)c2)[C@@H]1C=C(Cl)Cl (stereo partly drawn) [Compound P29J, (αRS)-cyano-3-phenoxybenzyl(1R)-cis-2,2-dimethyl-3-(2,2-dichlorovinyl)-cyclopropane carboxylate] | 11000 | 4200
31 | CC1(C)[C@H](C=C(Cl)Cl)[C@@H]1C(=O)OC(C#N)c1cccc(Oc2ccccc2)c1 (stereo partly drawn) [Compound P29K, (αRS)-cyano-3-phenxoybenzyl(1S)-cis-2,2-dimethyl-3-(2,2-dichlorovinyl)-cyclopropane carboxylate] | 140 | 130
32 | CC1(C)[C@H](C=C(F)F)[C@H]1C(=O)OCc1coc(Cc2ccccc2)c1 [Compound P31A] | 3900 | 1900
33 | CC1(C)[C@H](C=C(F)F)[C@H]1C(=O)OCc1cccc(Oc2ccccc2)c1 [Compound P31B] | 620 | 270
34 | CC1(C)[C@H](C=C(F)F)[C@H]1C(=O)OC(C#N)c1cccc(Oc2ccccc2)c1 (stereo partly shown) [Compound P31C] | 840 | 730
35 | CC1(C)[C@H](C(=O)OCc2coc(Cc3ccccc3)c2)[C@@H]1C=C(F)F [Compound P31D] | 2300 | 1300

Reference: US4622337A, “2,2-dimethyl-3-(2-halovinyl)cyclopropane carboxlic acid ester pesticides” (priority 1972, dated 1986)
